Measurements: ChEMBL document CHEMBL4507267 (2021)

Columns and labels:
[1] = target: Tyrosine-protein kinase ZAP-70 (Homo sapiens) (UniProt P43403); conditions: Compound concentration 1000.0 nM
[2] = target: Tyrosine-protein kinase JAK3 (Homo sapiens) (UniProt P52333); conditions: Compound concentration 1000.0 nM
[3] = target: Serine/threonine-protein kinase tousled-like 1 (Homo sapiens) (UniProt Q9UKI8); conditions: Compound concentration 1000.0 nM
[4] = target: Casein kinase I isoform epsilon (Homo sapiens) (UniProt P49674); conditions: Compound concentration 1000.0 nM
[5] = target: cAMP-dependent protein kinase catalytic subunit alpha (Homo sapiens) (UniProt P17612); conditions: Compound concentration 1000.0 nM
[6] = tested on: Hepatocyte growth factor receptor (Homo sapiens), P08581 [Y1235D]; conditions: Compound concentration 1000.0 nM
[7] = target: Serine/threonine-protein kinase tousled-like 2 (Homo sapiens) (UniProt Q86UE8); conditions: Compound concentration 1000.0 nM
Chain of Serine/threonine-protein kinase tousled-like 2 (Homo sapiens) (Q86UE8 whole entry, looked up): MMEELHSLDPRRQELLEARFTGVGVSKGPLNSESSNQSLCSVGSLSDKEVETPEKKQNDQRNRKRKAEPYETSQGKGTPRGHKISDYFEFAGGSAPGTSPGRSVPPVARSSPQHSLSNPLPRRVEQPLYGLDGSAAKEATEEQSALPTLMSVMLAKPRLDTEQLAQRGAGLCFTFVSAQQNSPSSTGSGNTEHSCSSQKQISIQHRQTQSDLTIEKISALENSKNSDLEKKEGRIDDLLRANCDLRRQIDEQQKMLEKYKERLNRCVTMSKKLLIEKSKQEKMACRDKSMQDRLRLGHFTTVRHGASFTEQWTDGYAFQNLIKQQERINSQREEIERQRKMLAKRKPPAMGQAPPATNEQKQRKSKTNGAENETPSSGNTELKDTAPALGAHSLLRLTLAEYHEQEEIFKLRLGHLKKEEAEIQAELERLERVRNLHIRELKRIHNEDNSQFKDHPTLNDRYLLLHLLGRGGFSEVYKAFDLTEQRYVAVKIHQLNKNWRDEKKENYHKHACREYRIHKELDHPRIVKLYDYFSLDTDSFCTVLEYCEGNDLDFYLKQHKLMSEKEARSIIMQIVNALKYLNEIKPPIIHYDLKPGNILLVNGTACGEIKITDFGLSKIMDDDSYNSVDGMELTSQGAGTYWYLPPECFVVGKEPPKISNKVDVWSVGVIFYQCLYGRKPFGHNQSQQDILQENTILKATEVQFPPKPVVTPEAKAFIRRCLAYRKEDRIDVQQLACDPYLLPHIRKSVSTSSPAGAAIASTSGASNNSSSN

[8] = target: Mitogen-activated protein kinase 8 (Homo sapiens) (UniProt P45983); conditions: Compound concentration 1000.0 nM
[9] = target: Protein kinase C delta type (Homo sapiens) (UniProt Q05655); conditions: Compound concentration 1000.0 nM
[10] = target: Mitogen-activated protein kinase kinase kinase 4 (Homo sapiens) (UniProt Q9Y6R4); conditions: Compound concentration 1000.0 nM
[11] = target: Alpha-2B adrenergic receptor (Homo sapiens) (UniProt P18089); conditions: Compound concentration 10.0 uM
Chain of Alpha-2B adrenergic receptor (Homo sapiens) (P18089 whole entry): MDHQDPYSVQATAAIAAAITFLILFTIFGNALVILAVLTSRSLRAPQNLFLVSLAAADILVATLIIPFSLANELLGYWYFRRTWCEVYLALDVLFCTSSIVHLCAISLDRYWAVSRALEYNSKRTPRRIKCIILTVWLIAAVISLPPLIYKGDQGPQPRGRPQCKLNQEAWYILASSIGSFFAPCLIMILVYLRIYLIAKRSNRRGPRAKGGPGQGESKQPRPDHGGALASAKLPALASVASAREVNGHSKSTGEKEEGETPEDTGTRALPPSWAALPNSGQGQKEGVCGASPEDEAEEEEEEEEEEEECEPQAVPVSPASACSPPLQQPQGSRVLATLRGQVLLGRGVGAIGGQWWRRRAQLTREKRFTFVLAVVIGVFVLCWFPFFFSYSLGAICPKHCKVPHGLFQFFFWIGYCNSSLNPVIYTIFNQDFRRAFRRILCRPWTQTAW

[12] = target: Tyrosine-protein kinase FRK (Homo sapiens) (UniProt P42685); conditions: Compound concentration 1000.0 nM
[13] = target: Cyclin-dependent kinase-like 2 (Homo sapiens) (UniProt Q92772); conditions: Compound concentration 1000.0 nM
[14] = target: Receptor-interacting serine/threonine-protein kinase 1 (Homo sapiens) (UniProt Q13546); conditions: Compound concentration 1000.0 nM
[15] = target: Casein kinase I isoform alpha (Homo sapiens) (UniProt P48729); conditions: Compound concentration 1000.0 nM
[16] = target: Mitogen-activated protein kinase 10 (Homo sapiens) (UniProt P53779); conditions: Compound concentration 1000.0 nM
[17] = target: G protein-coupled receptor kinase 4 (Homo sapiens) (UniProt P32298); conditions: Compound concentration 1000.0 nM
[18] = target: Alpha-1D adrenergic receptor (Homo sapiens) (UniProt P25100); conditions: Compound concentration 10.0 uM
[19] = target: Epidermal growth factor receptor (Homo sapiens) (UniProt P00533); conditions: Compound concentration 1000.0 nM
[20] = target: Serine/threonine-protein kinase Nek11 (Homo sapiens) (UniProt Q8NG66); conditions: Compound concentration 1000.0 nM
[21] = target: Serine/threonine-protein kinase Sgk3 (Homo sapiens) (UniProt Q96BR1); conditions: Compound concentration 1000.0 nM
[22] = target: Beta-adrenergic receptor kinase 1 (Homo sapiens) (UniProt P25098); conditions: Compound concentration 1000.0 nM
[23] = target: Insulin receptor-related protein (Homo sapiens) (UniProt P14616); conditions: Compound concentration 1000.0 nM
[24] = target: Microtubule-associated serine/threonine-protein kinase 1 (Homo sapiens) (UniProt Q9Y2H9); conditions: Compound concentration 1000.0 nM
[25] = target: Dual specificity mitogen-activated protein kinase kinase 3 (Homo sapiens) (UniProt P46734); conditions: Compound concentration 1000.0 nM
[26] = target: Serine/threonine-protein kinase ULK3 (Homo sapiens) (UniProt Q6PHR2); conditions: Compound concentration 1000.0 nM
Chain of Serine/threonine-protein kinase ULK3 (Homo sapiens) (Q6PHR2 whole entry): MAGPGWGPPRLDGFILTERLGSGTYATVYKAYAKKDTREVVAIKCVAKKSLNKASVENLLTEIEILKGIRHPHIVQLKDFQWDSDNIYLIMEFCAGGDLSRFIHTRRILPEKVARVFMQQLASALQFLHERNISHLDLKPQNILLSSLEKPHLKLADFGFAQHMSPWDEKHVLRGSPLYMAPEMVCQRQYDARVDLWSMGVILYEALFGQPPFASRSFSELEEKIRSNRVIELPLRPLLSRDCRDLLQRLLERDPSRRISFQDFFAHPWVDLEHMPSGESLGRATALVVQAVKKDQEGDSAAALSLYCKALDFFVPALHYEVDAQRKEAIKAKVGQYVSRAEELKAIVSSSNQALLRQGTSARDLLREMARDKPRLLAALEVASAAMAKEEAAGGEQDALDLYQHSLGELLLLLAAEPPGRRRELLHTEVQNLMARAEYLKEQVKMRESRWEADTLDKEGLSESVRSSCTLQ

[27] = target: Ribosomal protein S6 kinase alpha-2 (Homo sapiens) (UniProt Q15349); conditions: Compound concentration 1000.0 nM
Chain of Ribosomal protein S6 kinase alpha-2 (Homo sapiens) (Q15349 whole entry): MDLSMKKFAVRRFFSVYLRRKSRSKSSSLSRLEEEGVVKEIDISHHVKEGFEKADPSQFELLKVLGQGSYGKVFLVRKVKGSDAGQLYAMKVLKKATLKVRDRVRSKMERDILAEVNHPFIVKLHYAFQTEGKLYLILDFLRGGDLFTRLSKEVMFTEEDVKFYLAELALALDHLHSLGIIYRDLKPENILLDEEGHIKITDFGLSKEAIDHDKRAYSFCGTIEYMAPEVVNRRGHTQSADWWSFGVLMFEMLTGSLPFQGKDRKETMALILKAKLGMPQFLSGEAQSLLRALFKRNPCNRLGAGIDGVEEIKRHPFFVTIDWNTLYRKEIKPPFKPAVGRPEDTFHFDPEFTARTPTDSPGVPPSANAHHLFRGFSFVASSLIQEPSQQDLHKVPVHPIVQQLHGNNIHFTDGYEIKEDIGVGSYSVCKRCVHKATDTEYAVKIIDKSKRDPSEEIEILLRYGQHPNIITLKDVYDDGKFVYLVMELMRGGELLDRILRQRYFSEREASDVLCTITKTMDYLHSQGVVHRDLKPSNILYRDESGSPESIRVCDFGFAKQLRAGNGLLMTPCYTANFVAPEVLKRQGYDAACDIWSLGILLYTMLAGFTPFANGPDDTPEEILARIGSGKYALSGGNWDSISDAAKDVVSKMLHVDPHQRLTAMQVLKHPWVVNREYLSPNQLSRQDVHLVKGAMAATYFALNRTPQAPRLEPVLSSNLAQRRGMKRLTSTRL

[28] = target: Serine/threonine-protein kinase PLK1 (Homo sapiens) (UniProt P53350); conditions: Compound concentration 1000.0 nM
Chain of Serine/threonine-protein kinase PLK1 (Homo sapiens) (P53350 whole entry): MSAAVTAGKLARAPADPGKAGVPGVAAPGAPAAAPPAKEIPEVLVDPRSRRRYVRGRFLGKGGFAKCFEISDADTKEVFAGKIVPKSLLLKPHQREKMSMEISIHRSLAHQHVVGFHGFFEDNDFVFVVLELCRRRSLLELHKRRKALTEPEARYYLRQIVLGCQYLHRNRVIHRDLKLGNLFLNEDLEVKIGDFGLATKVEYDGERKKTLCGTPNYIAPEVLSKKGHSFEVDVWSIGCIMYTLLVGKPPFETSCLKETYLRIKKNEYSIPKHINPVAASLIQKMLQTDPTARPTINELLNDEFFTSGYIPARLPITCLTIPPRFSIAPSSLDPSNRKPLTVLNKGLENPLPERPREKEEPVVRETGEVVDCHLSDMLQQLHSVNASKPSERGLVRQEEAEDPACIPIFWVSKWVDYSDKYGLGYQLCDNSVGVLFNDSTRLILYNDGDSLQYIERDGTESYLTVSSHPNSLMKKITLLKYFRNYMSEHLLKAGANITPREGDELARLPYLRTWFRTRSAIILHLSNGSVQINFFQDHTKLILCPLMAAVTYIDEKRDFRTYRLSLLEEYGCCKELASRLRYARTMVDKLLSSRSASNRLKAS

[29] = target: Rhodopsin kinase GRK7 (Homo sapiens) (UniProt Q8WTQ7); conditions: Compound concentration 1000.0 nM
Chain of Rhodopsin kinase GRK7 (Homo sapiens) (Q8WTQ7 whole entry): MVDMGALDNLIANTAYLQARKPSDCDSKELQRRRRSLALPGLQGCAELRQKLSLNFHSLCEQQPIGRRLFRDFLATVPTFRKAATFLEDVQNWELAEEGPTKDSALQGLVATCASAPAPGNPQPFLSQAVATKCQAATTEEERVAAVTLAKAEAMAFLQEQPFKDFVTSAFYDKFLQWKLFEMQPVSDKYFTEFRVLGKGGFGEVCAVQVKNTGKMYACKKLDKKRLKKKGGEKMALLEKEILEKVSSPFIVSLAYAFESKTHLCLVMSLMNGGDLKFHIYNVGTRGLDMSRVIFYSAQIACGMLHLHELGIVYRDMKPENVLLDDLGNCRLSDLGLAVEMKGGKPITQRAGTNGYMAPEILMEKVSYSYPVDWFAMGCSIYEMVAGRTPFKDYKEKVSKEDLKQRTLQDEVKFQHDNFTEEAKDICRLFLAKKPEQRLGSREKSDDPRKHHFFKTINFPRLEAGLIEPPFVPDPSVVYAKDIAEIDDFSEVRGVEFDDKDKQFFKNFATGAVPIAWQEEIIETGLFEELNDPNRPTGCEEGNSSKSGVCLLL

[30] = target: Serine/threonine-protein kinase 3 (Homo sapiens) (UniProt Q13188); conditions: Compound concentration 1000.0 nM
[31] = target: Serine/threonine-protein kinase B-raf (Homo sapiens) (UniProt P15056); conditions: Compound concentration 1000.0 nM
[32] = target: Testis-specific serine/threonine-protein kinase 1 (Homo sapiens) (UniProt Q9BXA7); conditions: Compound concentration 1000.0 nM
Chain of Testis-specific serine/threonine-protein kinase 1 (Homo sapiens) (Q9BXA7 whole entry): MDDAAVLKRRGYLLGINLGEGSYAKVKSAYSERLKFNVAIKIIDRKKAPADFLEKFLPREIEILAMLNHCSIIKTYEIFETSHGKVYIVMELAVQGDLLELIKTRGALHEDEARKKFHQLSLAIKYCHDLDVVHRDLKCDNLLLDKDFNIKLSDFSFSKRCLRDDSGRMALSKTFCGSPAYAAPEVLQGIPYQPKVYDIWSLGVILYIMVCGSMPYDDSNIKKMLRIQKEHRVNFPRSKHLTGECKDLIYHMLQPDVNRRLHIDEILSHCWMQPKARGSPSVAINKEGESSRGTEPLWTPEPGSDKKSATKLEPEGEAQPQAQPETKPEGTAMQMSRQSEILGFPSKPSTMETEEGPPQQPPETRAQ

[33] = target: Activin receptor type-2B (Homo sapiens) (UniProt Q13705); conditions: Compound concentration 1000.0 nM
[34] = target: Misshapen-like kinase 1 (Homo sapiens) (UniProt Q8N4C8); conditions: Compound concentration 1000.0 nM
[35] = target: Calcium/calmodulin-dependent protein kinase kinase 2 (Homo sapiens) (UniProt Q96RR4); conditions: Compound concentration 1000.0 nM
Chain of Calcium/calmodulin-dependent protein kinase kinase 2 (Homo sapiens) (Q96RR4 2-588 limits assumed): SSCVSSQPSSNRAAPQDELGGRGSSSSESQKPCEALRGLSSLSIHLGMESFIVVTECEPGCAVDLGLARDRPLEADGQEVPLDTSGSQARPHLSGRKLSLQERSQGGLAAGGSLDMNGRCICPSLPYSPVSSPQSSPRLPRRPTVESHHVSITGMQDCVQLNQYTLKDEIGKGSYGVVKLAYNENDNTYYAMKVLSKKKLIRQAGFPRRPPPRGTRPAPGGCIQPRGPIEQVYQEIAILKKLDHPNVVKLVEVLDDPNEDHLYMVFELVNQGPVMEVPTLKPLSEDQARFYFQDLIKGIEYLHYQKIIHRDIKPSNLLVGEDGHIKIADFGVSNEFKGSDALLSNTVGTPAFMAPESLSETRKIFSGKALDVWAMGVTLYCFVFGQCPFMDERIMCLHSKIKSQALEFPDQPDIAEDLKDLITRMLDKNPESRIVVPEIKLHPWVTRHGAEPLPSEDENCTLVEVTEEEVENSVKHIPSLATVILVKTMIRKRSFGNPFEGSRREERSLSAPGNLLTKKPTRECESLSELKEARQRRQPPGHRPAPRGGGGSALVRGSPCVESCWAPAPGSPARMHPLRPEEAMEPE

[36] = target: 5-hydroxytryptamine receptor 1D (Homo sapiens) (UniProt P28221); conditions: Compound concentration 10.0 uM
[37] = target: Maternal embryonic leucine zipper kinase (Homo sapiens) (UniProt Q14680); conditions: Compound concentration 1000.0 nM
[38] = target: MAP/microtubule affinity-regulating kinase 3 (Homo sapiens) (UniProt P27448); conditions: Compound concentration 1000.0 nM
[39] = target: Dual specificity protein kinase CLK1 (Homo sapiens) (UniProt P49759); conditions: Compound concentration 1000.0 nM
[40] = target: Serine/threonine-protein kinase Nek4 (Homo sapiens) (UniProt P51957); conditions: Compound concentration 1000.0 nM
[41] = target: Cyclin-dependent kinase 15 (Homo sapiens) (UniProt Q96Q40); conditions: Compound concentration 1000.0 nM
[42] = target: Dual specificity mitogen-activated protein kinase kinase 1 (Homo sapiens) (UniProt Q02750); conditions: Compound concentration 1000.0 nM
Chain of Dual specificity mitogen-activated protein kinase kinase 1 (Homo sapiens) (Q02750 whole entry): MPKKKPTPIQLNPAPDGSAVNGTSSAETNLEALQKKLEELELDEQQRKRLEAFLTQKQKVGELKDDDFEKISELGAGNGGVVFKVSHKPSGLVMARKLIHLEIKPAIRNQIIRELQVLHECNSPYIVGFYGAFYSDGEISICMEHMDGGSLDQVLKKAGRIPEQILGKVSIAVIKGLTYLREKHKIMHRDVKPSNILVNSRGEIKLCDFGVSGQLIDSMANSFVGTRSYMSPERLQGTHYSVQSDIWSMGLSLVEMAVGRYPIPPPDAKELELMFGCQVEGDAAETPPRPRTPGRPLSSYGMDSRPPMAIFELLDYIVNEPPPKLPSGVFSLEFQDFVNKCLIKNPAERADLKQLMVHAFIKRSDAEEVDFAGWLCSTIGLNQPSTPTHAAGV

[43] = target: 3-phosphoinositide-dependent protein kinase 1 (Homo sapiens) (UniProt O15530); conditions: Compound concentration 1000.0 nM
[44] = target: Casein kinase I isoform alpha-like (Homo sapiens) (UniProt Q8N752); conditions: Compound concentration 1000.0 nM
[45] = target: Wee1-like protein kinase 2 (Homo sapiens) (UniProt P0C1S8); conditions: Compound concentration 1000.0 nM
[46] = target: RAC-alpha serine/threonine-protein kinase (Homo sapiens) (UniProt P31749); conditions: Compound concentration 1000.0 nM

Cc1c(NC(=O)c2cc(C(N)=O)nc3cc(F)ccc23)c(C(F)(F)F)nn1Cc1ccc(C(C)(C)C)cc1 [BAY-588]
inactive: residual activity [1] 100% | residual activity [2] 100% | residual activity [3] 100% | residual activity [4] 91% | residual activity [5] 87% | residual activity [6] 84% | residual activity [7] 100% | residual activity [8] 100% | residual activity [9] 100% | residual activity [10] 100% | inhibition [11] 15.6% | residual activity [12] 90% | residual activity [13] 100% | residual activity [14] 100% | residual activity [15] 94% | residual activity [16] 100% | residual activity [17] 100% | inhibition [18] 2.92% | residual activity [19] 100% | residual activity [20] 100% | residual activity [21] 94% | residual activity [22] 100% | residual activity [23] 96% | residual activity [24] 100% | residual activity [25] 90% | residual activity [26] 97% | residual activity [27] 100% | residual activity [28] 99% | residual activity [29] 100% | residual activity [30] 90% | residual activity [31] 81% | residual activity [32] 100% | residual activity [33] 100% | residual activity [34] 90% | residual activity [35] 78% | inhibition [36] -4.9% | residual activity [37] 100% | residual activity [38] 100% | residual activity [39] 62% | residual activity [40] 100% | residual activity [41] 100% | residual activity [42] 91% | residual activity [43] 94% | residual activity [44] 93% | residual activity [45] 96% | residual activity [46] 93%

Cc1c(NC(=O)c2cc(C(N)=O)nc3cc(F)ccc23)c(C(F)(F)F)nn1Cc1ccc(C#N)cc1 [BAY-876]
inactive: residual activity [1] 84% | residual activity [2] 90% | residual activity [3] 79% | residual activity [4] 100% | residual activity [5] 78% | residual activity [6] 100% | residual activity [7] 100% | residual activity [8] 80% | residual activity [9] 95% | residual activity [10] 97% | inhibition [11] 7.66% | residual activity [12] 100% | residual activity [13] 92% | residual activity [14] 100% | residual activity [15] 72% | residual activity [16] 85% | residual activity [17] 100% | inhibition [18] 7.36% | residual activity [19] 100% | residual activity [20] 100% | residual activity [21] 83% | residual activity [22] 87% | residual activity [23] 92% | residual activity [24] 77% | residual activity [25] 88% | residual activity [26] 74% | residual activity [27] 85% | residual activity [28] 88% | residual activity [29] 75% | residual activity [30] 96% | residual activity [31] 91% | residual activity [32] 95% | residual activity [33] 93% | residual activity [34] 89% | residual activity [35] 92% | inhibition [36] 6.11% | residual activity [37] 90% | residual activity [38] 100% | residual activity [39] 86% | residual activity [40] 92% | residual activity [41] 100% | residual activity [42] 90% | residual activity [43] 73% | residual activity [44] 100% | residual activity [45] 100% | residual activity [46] 91%
